Test results reported in US10583094B2.

Key:
SUR1 = SUR1 knockdown by antisense ODN infusion at gelfoam implantation site; R1 astrocyte response to Na azide; assay type: cell-based, rat; conditions: for Depolarization of R1 astrocytes on Na azide: Na azide 1 mM
Source text: To further test involvement of SUR1, SUR1 expression was “knocked down” in situ by infusing oligodeoxynucleotide (ODN) for 14 days using a mini-osmotic pump, with the delivery catheter placed in the gelfoam implantation site in the brain, in the otherwise standard model we use for R1 astrocyte isolation ([…] et al., 1980, […] et al., 2002, […] et al., 2000, […] et al., 1999). Knockdown of SUR1 expression (SUR1KD) was achieved using antisense (AS; [NT] ID NO: 9)) (Yokoshiki et al., 1999) oligodeoxynucleotide (ODN), with scrambled ([…] ID NO: 10)) ODN being used as control. […] In R1 astrocytes from SUR1KD, however, Na azide had little effect on resting membrane potential (FIG. 24D).

[1] = tested on: freshly isolated R1 astrocytes; test: Na azide-induced blebbing and cell death of freshly isolated R1 astrocytes
MCA stroke (MCE model) [2] = test: MCA stroke (MCE model): tissue water content by wet/dry weight; assay type: in vivo, Wistar rats; conditions: 8 hr after stroke
Description: For large MCA strokes with malignant cerebral edema (MCE), the inventors first embolized microparticles (Nakabayashi et al., 1997) [polyvinyl alcohol (PVA) particles; […] […] TTC(−) portions of the involved hemisphere. […] Of these, 15 rats were used for validation of drug action (mortality, tissue water and glucose) and 5 rats were used for determination of drug distribution. […] For stroke size, stained sections were photographed and images were analyzed (Scion Image) to determine the percent of the involved hemisphere occupied by TTC(−) tissue; no correction for edema was performed. For some determinations of water or SUR1 protein content, individual coronal sections were divided under magnification into 3 parts: (i) the non-involved, control hemisphere; (ii) the TTC(+) portion of the involved hemisphere; (iii) the TTC(−) portion of the involved hemisphere. For each animal, pooled tissues from the 3 parts were then processed for tissue water measurements or for Western blots. Tissue water was quantified by the wet/dry weight method (Hua et al., 2003). Tissue samples were blotted to remove small quantities of adsorbed fluid. Samples were weighed with a precision scale to obtain the wet weight (WW), dried to constant weight at 80° C. and low vacuum, and then reweighed to obtain the dry weight (WD). The percent H2O of each tissue sample was then calculated as (WW-WD)×100/WW.

MMP-9 & MMP-2 = test: Zymography of gelatinase activity of recombinant enzyme and stroke tissue; assay type: biochemical; conditions: glibenclamide 10 μM; MMP inhibitor II 300 nM
Description: Activation of MMP-9 & MMP-2 in stroke tissue was compared to controls.
Next, the supernatants underwent a gelatinase purification process with gelatin-Sepharose 4B (Pharmacia), and Zymography was performed on the purified supernatants in sodium dodecyl sulfate gels containing gelatin (Rosenberg, 1994). Dried gels were scanned with a transparency scanner, and images were analyzed by densitometry. The relative lysis of an individual sample was expressed as the integrated density value of its band and divided by the protein content of the sample.

rodent model of stroke = test: Rodent model of stroke, mortality and hemisphere water (Example 9); assay type: in vivo, rat; conditions: n=5 in each group
thromboembolic stroke = test: Thromboembolic stroke with rtPA reperfusion at 6 hr: hemorrhagic conversion; assay type: in vivo, spontaneously hypertensive rats; conditions: rtPA 10 mg/kg i.v. at 6 hr, 24 hr after stroke
Description: A rodent model of thromboembolic stroke was used (Aoki et al., 2002; Kijkhuizen et al., 2001; Kano et al., 2000; Sumii et al., 2002; Tejima et al., 2001). […] Sumii et al., 2002). Rectal temperature was maintained at 37° C. with a thermostat-controlled heating pad. The right femoral artery was cannulated, and physiological parameters, including temperature, mean blood pressure, pH, pO2, and pCO2, glucose were monitored. Temporary focal ischemia was obtained with an embolic model that used allogeneic clots to occlude the MCA. Allogeneic, thrombin-induced, fibrin-rich blood clots were prepared using methods adapted from […] et al. (Asahi et al., 2000; […] et al., 2003; Sumii et al., 2002). Seven clots, 1.5 mm long, were used for embolizing. Using a ventral cervical incision, the internal and external carotid arteries were exposed. The external carotid artery and pterygopalatine arteries were ligated. Removable surgical clips were applied to the common and internal carotid arteries. The modified PE-50 catheter containing the clots was inserted retrograde into the external carotid artery and advanced up to the internal carotid artery. The temporary clips were removed, and the clots were injected. Incisions were closed. […] Physiological parameters, including temperature, mean blood pressure (tail cuff plethysmography), blood gases and glucose were monitored. […]

[3] = rat, in vivo
MCA stroke (MCE model) [4] = tested on: MCA stroke (MCE model); set-up: species or system Wistar rats; conditions: rat, in vivo, sc

## 5′-GGCCGAGTGGTTCTCGGT-3′ (chemistry not given here) [AS-ODN, antisense oligodeoxynucleotide used to knock down SUR1 expression]
SUR1
  Depolarization of R1 astrocytes on Na azide: little or no depolarization
SUR1; listed as SUR1KD
  Depolarization of R1 astrocytes on Na azide: 8.7±1.7 mV
SUR1; ODN infused for 14 days, compared with scrambled ODN
  SUR1 expression in gliotic capsule (immunoblot): significant reduction in SUR1 expression
SUR1; R1 astrocytes
  Membrane blebbing after exposure to Na azide: not observed

## CC1=NS(=O)(=O)c2cc(Cl)ccc2N1 [diazoxide]
[1]; phase contrast, observed over 30 min
  Cell morphology (blebbing) on exposure to channel opener: developed progressive blebbing consistent with cytotoxic edema

## COc1ccc(Cl)cc1C(=O)NCCc1ccc(S(=O)(=O)NC(=O)NC2CCCCC2)cc1 [glibenclamide]
MCA stroke (MCE model) [2]
  Rise of water in TTC(+) tissue over uninvolved hemisphere: 2.5%
  Rise of water in involved hemisphere over control hemisphere: 2.0%
[1]; Na azide 1 mM, glibenclamide 1 μM
  Necrotic death (propidium iodide) induced by Na azide: largely prevented
MMP-9 & MMP-2
  Gelatinase activity in presence of compound: the same as that assayed without
Rodent model of stroke
  Excess water in stroke hemisphere compared with saline-treated rats: only half as much excess water
Thromboembolic stroke; co-treated with glibenclamide 1.5 μg/kg i.v. plus pump 300 μM at ½ μl/hr
  Animals with hemorrhagic conversion: 1/5
Thromboembolic stroke; co-treated with glibenclamide
  Animals showing no evidence of hemorrhage: 4/5
[3]
  Serum glucose at 8 hr: 93 ± 3 mg/dL

## BODIPY-FL-glyburide [BODIPY-glibenclamide]
MCA stroke (MCE model) [2]
  Water in TTC(+) tissue of involved hemisphere: 82.7±1.4%
MCA stroke (MCE model) [4]
  Mortality during 7 days after MCA stroke: 40%
